How the values were obtained:
[1] = system: hypoxia-induced pulmonary hypertension in rat; test: Acute efficacy in hypoxia-induced pulmonary hypertension in rat following intratracheal (IT) administration; format: in vivo; conditions: decrease in SBP at dose giving decrease in PAP ≥15 mmHg
Excerpt: Acute Efficacy in Hypoxia-Induced Pulmonary Hypertension in Rat Following Intratracheal (IT) Administration Charles River Sprague-Dawley (CD) male rats weighing approximately 350 g were implanted with HD-S21 dual pressure telemetry transmitters (Data Sciences International (DSI)) into the pulmonary artery and femoral artery. This transmitter enables simultaneous measurement of both pulmonary and systemic hemodynamic parameters in the same animal. After a 7-10 day post-operative recovery period, animals were subjected to a normobaric hypoxic (10% oxygen) environment using a Higher Peak Mountain Air Generator (MAG-10) connected to a modified rodent cage via a fitted inlet port. Oxygen (at 10%), temperature, humidity, and CO2 were controlled within normal range and animals were maintained on a 12 hour light-dark cycle with ad libitum access to food and water. After two weeks exposure to 10% O2 hypoxic environment, systolic pulmonary arterial pressure readings increased from ˜25 mmHg to greater than 50 mmHg. Using a 48 hour baseline average, animals with readings between 50-110 mmHg (standard deviation of less than 10 mmHg) and minimal changes in systolic systemic blood pressure were enrolled for study. Animals were utilized for up to 2 studies per week for 4 weeks with a minimum of 2 days washout between doses of test agent. Compound or vehicle was administered intra-tracheally under light isoflurane anesthesia (5% in oxygen; flow rate 2.0 L/min for 3 minutes). Once anesthetized, rats were placed on an angled intubation stand in supine position and the trachea visualized using a small laryngoscope. Animals then received either 0.5 mL/kg of vehicle or 0.5 mL/kg vehicle containing compound intra-tracheally delivered via microsprayer by use of a Penn-Century Microsprayer® needle 3″ (Model IA-1B-GP) attached to a 1 mL high pressure syringe (Penn Century-Model B—SYR-PL1000) (Penn-Century, Philadelphia, Pa.). The Microsprayer® tip was inserted into the trachea up to the point at which the bend in the needle is close to the tip of the snout, which positions the tip of the Microsprayer® in front of the carina (bifurcation of trachea at the bronchi). After dose delivery the animal is placed on its back in the home cage for recovery. Hemodynamic measurements were continuously recorded and readings consolidated to hourly moving averages. Each animal received a vehicle on Day 1 followed by vehicle or test agent on Day 2. Change from vehicle baseline was calculated by subtracting the hourly Day 1 vehicle response from the hourly Day 2 response and treatment group data was expressed as mean±SEM. Decreases of systolic blood pressure (SBP) and systolic pulmonary arterial pressure (PAP) were measured at a particular IT dose (mpk milligrams per kilogram) for the following Example compounds. Compounds in the Table 13 achieved a minimum decrease in PAP of ≥15 mmHg for the corresponding decrease in SBP listed.

[2] = target: human recombinant sGC enzyme (Homo sapiens (Human), UniProt Q02108+Q02153); test: SEC competition binding assay with [3H] Compound B radioligand; conditions: displacement of 1.6 nM [3H] Compound B, 24 h at 37° C.
Procedure, shortened: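 Competition format: [3H] Compound B (1.6 nM) displaced from human recombinant sGC over 24 h at 37° C. in triethanolamine pH 7.4 buffer with MgCl2, BSA, DTT, 300 μM DETA/NO and 400 μM GTP (1% DMSO). Gel-filtration eluates counted by liquid scintillation; 1 μM Compound B defined non-specific binding; Ki by one-site fit.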

[3] = target: sGC α1/β1 heterodimer (Homo sapiens (Human), UniProt Q02108+Q02153); test: Cell-based sGC functional assay (CASA assay), cGMP by HTRF; conditions: CHO-K1/sGC cells; for Emax: CHO-K1, cGMP production as percentage of maximum of compound A (set to 100%), read-out: % Activation; for EC50: inflection point of cGMP production, 4P fit, read-out: IP
Procedure, shortened: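 cGMP made in CHO-K1/sGC (human α1/β1) cells is read by HTRF after compound treatment for 1 hr at 37° C, following 30 min at 25° C with or without 1 μM DETA-NO; IBMX 0.5 mM present. Values are % of standard compound maximum; 4P fit.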

| SMILES | Ki [2] | Emax [3] | EC50 [3] | Category (decrease in SBP) ([1]; IT dose 0.01 mpk) | Category (decrease in SBP) ([1]; IT dose 0.03 mpk) | Category (decrease in SBP) ([1]; IT dose 0.3 mpk) |
| --- | --- | --- | --- | --- | --- | --- |
| CC1(c2ccc(F)c(O)c2)C(=O)Nc2nc(-c3cn4ccnc4c(CCC(F)(F)C(F)(F)F)n3)nc(N)c21 (racemic) [Example 115-B, 4-Amino-5-(4-fluoro-3-hydroxyphenyl)-5-methyl-2-(8-(3,3,4,4,4-pentafluorobutyl)-imidazo[1,2-a]pyrazin-6-yl)-5,7-dihydro-6H-pyrrolo[2,3-d]pyrimidin-6-one] | 5.03 nM | 79% | 63 nM |  |  | C (decrease in SBP >10 mmHg) |
| CC1(c2ccc(O)c(F)c2)C(=O)Nc2nc(-c3cn4ccnc4c(Cc4ccc(F)cc4)n3)nc(N)c21 (stereo not drawn) [Example 29-B, 4-Amino-5-(3-fluoro-4-hydroxyphenyl)-2-{8-[(4-fluorophenyl)methyl]imidazo[1,2-a]pyrazin-6-yl}-5-methyl-5,7-dihydro-6H-pyrrolo[2,3-d]pyrimidin-6-one] | 0.291 nM | 80% | 67 nM |  | C (decrease in SBP >10 mmHg) |  |
| Cc1ccc(C2(C)C(=O)Nc3nc(-c4cn5ccnc5c(Cc5cccc(F)c5)n4)nc(N)c32)cc1O (stereo not drawn) [Example 107-B, 4-Amino-2-{8-[(3-fluorophenyl)methyl]imidazo[1,2-a]pyrazin-6-yl}-5-(3-hydroxy-4-methylphenyl)-5-methyl-5,7-dihydro-6H-pyrrolo[2,3-d]pyrimidin-6-one] | 0.221 nM | 135% | 198 nM | A (decrease in SBP 0-5 mmHg) |  |  |
| CC1(c2ccc(O)c(Cl)c2)C(=O)Nc2nc(-c3cn4ccnc4c(Cc4ccccc4F)n3)nc(N)c21 (stereo not drawn) [Example 28-B, 4-Amino-5-(3-chloro-4-hydroxyphenyl)-2-{8-[(2-fluorophenyl)methyl]imidazo[1,2-a]pyrazin-6-yl}-5-methyl-5,7-dihydro-6H-pyrrolo[2,3-d]pyrimidin-6-one] | 0.283 nM | 141% | 433 nM | B (decrease in SBP 5-10 mmHg) |  |  |
| CC1(c2cc(O)c(C#N)c(F)c2)C(=O)Nc2nc(-c3cn4ccnc4c(Cc4ccccc4F)n3)nc(N)c21 (stereo not drawn) [Example 23-B, 4-(4-Amino-2-{8-[(2-fluorophenyl)methyl]imidazo[1,2-a]pyrazin-6-yl}-5-methyl-6-oxo-6,7-dihydro-5H-pyrrolo[2,3-d]pyrimidin-5-yl)-2-fluoro-6-hydroxybenzonitrile] | 0.216 nM | 76% | 3110 nM |  | A (decrease in SBP 0-5 mmHg) |  |
| CC1(c2cccc(O)c2)C(=O)Nc2nc(-c3cn4ccnc4c(Cc4cc(F)ccc4F)n3)nc(N)c21 (stereo not drawn) [Example 11-B, 4-Amino-2-{8-[(2,5-difluorophenyl)methyl]imidazo[1,2-a]pyrazin-6-yl}-5-(3-hydroxyphenyl)-5-methyl-5,7-dihydro-6H-pyrrolo[2,3-d]pyrimidin-6-one] | 0.135 nM | 137% | 503 nM | B (decrease in SBP 5-10 mmHg) |  |  |

Continued, in another order:

| Ki [2] | Emax [3] | EC50 [3] | SMILES | Category (decrease in SBP) ([1]; IT dose 0.01 mpk) | Category (decrease in SBP) ([1]; IT dose 0.03 mpk) | Category (decrease in SBP) ([1]; IT dose 0.3 mpk) |
| --- | --- | --- | --- | --- | --- | --- |
| 0.156 nM | 68% | 144 nM | CC1(c2ccc(Cl)c(O)c2)C(=O)Nc2nc(-c3cn4ccnc4c(CC4CCCCC4)n3)nc(N)c21 (stereo not drawn) [Example 14-A, 4-Amino-5-(4-chloro-3-hydroxyphenyl)-2-(8-(cyclohexylmethyl)imidazo[1,2-a]pyrazin-6-yl)-5-methyl-5,7-dihydro-6H-pyrrolo[2,3-d]pyrimidin-6-one] | A (decrease in SBP 0-5 mmHg) |  |  |
| 0.874 nM | 88% | 1020 nM | CC1(c2cc(O)c(Cl)cn2)C(=O)Nc2nc(-c3cn4ccnc4c(Cc4cccc(F)c4)n3)nc(N)c21 (stereo not drawn) [Example 51-B, 4-Amino-5-(5-chloro-4-hydroxypyridin-2-yl)-2-{8-[(3-fluorophenyl)methyl]imidazo[1,2-a]pyrazin-6-yl}-5-methyl-5,7-dihydro-6H-pyrrolo[2,3-d]pyrimidin-6-one] |  | A (decrease in SBP 0-5 mmHg) |  |
| 0.149 nM | 125% | 1260 nM | CC1(c2cc(O)c(Cl)cn2)C(=O)Nc2nc(-c3cn4ccnc4c(Cc4cc(F)ccc4F)n3)nc(N)c21 (stereo not drawn) [Example 94-B, 4-Amino-5-(5-chloro-4-hydroxypyridin-2-yl)-2-{8-[(2,5-difluorophenyl)methyl]imidazo[1,2-a]pyrazin-6-yl}-5-methyl-5,7-dihydro-6H-pyrrolo[2,3-d]pyrimidin-6-one] |  | B (decrease in SBP 5-10 mmHg) |  |
| 0.374 nM | 98% | 683 nM | CC1(c2cc(O)c(Cl)cn2)C(=O)Nc2nc(-c3cn4ccnc4c(CC4CCCCC4)n3)nc(N)c21 (stereo not drawn) [Example 93-B, 4-Amino-5-(5-chloro-4-hydroxypyridin-2-yl)-2-(8-(cyclohexylmethyl)imidazo[1,2-a]pyrazin-6-yl)-5-methyl-5,7-dihydro-6H-pyrrolo[2,3-d]pyrimidin-6-one] |  | A (decrease in SBP 0-5 mmHg) |  |
| 0.168 nM | 88% | 950 nM | CC1(c2cc(O)c(C#N)c(F)c2)C(=O)Nc2nc(-c3cn4ccnc4c(CC4CCCCC4)n3)nc(N)c21 (stereo not drawn) [Example 18-B, 4-(4-Amino-2-(8-(cyclohexylmethyl)imidazo[1,2-a]pyrazin-6-yl)-5-methyl-6-oxo-6,7-dihydro-5H-pyrrolo[2,3-d]pyrimidin-5-yl)-2-fluoro-6-hydroxybenzonitrile] |  | B (decrease in SBP 5-10 mmHg) |  |
| 0.252 nM | 117% | 223 nM | CC(C)CCc1nc(-c2nc(N)c3c(n2)NC(=O)C3(C)c2ccc(Cl)c(O)c2)cn2ccnc12 (stereo not drawn) [Example 25-A, 4-Amino-5-(4-chloro-3-hydroxyphenyl)-2-(8-isopentylimidazo[1,2-a]pyrazin-6-yl)-5-methyl-5,7-dihydro-6H-pyrrolo[2,3-d]pyrimidin-6-one] |  | B (decrease in SBP 5-10 mmHg) |  |

Reference: patent publication US10780092B2, “Fused pyrazine derivatives useful as soluble guanylate cyclase stimulators” (Merck Sharp & Dohme Corp., priority 2016, dated 2020)
